# Source: patent US20040204340A1, “Polyprolyl inhibitors of cyclophilin” (Guilford Pharmaceuticals, Inc., priority 2003, published 2004)
# Test system: cultured chick sensory neurons from dorsal root ganglia
# Test: Chick dorsal root ganglion cultures and neurite outgrowth
# Assay type: cell-based
# Conditions: 1 mM, 48 h after treatment (FIGS. 4, 5)
# Experimental: Dorsal root ganglia were dissected from chick embryos of ten day gestation. Whole ganglion explants were cultured on thin layer Matrigel-coated 12 well plates with Liebovitz L15 plus high glucose media supplemented with 2 mM glutamine and […], and also containing 10 μM cytosine 9-D arabinofuranoside (Ara C) at 37° C. in an environment containing 5% CO2. Twenty-four hours later, the DRGs were treated with various concentrations of nerve growth factor, immunophilin ligands or combinations of NFG plus drugs. Forty-eight hours after drug treatment, the ganglia were visualized under phase contrast or Hoffman Modulation contrast with a Zeiss Axiovert inverted microscope. Photomicrographs of the explants were made, and neurite outgrowth was quantitated. Neurites longer than the DRG diameter were counted as positive, with total number of neurites quantitated per each experimental condition. Three to four DRGs are cultured per well, and each treatment was performed in duplicate.
row,Substance,Promotion of neurite outgrowth (neurotrophic effects)
1,Ac-Pro-Ala-Pro-Ala-NH2 (Ac-PAPA-NH2),potent neurotrophic effects
2,Ac-Pro-Gly-Pro-Phe-NH2 (Ac-PGPF-NH2),powerful neurotrophic effects
